Legend:
[1] = test system: mice skin; assay: UVB-induced skin injury in mice (chronic and acute UVB exposure); assay type: in vivo; conditions: topical administration; summary statement
Procedure: (§1) FIG. 2A. […] FIG. 2B. […] 1×1 cm are on the right flank of the mice were exposed to UVB 3 times/week for 3 weeks (n=5). Either vehicle or GNP-VEGF antibody was applied to the area 2 hours after exposure. FIG. 2C. […] All treatments were applied 2 hours post-UVB exposure. Data representative of 2 experiments, n=5. Ear thickness was measured 2 days after UVB exposure. Avastin® and 2C3 are VEGF antibodies. FIG. 2D. Topical administration of GNP-VEGF antibody or small molecular inhibitor (SMI) of VEGF signaling, sorafenib, reduces edema. All treatments were applied 2 hours post UVB exposure. Data representative of 2 experiments, n=5. Ear thickness was measured 2 days after UVB exposure.
Vascular endothelial growth factor (VEGF) was induced by UVB light and works concomitantly with ROS to induce the pathway, and was identified as an upstream regulator of the inflammation pathway.

[2] = test system: primary melanoma tumor; assay: Mouse model of melanoma with chronic UVB exposure; assay type: in vivo, mice; conditions: summary statement
Procedure: FIG. 3A. […] For Tumor+UV group * p<0.05, ** p<0.01 compared to tumor only, § p<0.05 compared to Tumor+UV+Tx group. No significant difference between tumor only and tumor+UV+Tx group at all time points. Data based on 3 experiments (n=5). FIG. 3B. […] FIG. 3C. Quantification of vessel density via CD31 staining, a marker of vessels.
FIG. 4A. Schematic diagram of experimental setup corresponding to FIG. 3A. All mice were injected with tumor on their right flank on Day 0. Luciferase imaging was done on day 5. Based on luciferase imaging data, mice were assigned to different groups (no UV—tumor only, tumor+UV, and tumor+UV+Tx). Starting on day 6, 1×1 cm area on the tumor was exposed to UVB. Vehicle or treatment was applied 2 hours post UVB exposure. A subset of the mice (n=4) was sacrificed on day 6, 10, 14 and 19 for analysis. FIG. 4B. Survival curve of mice in a separate analogous tumor study to the one represented in FIG. 3A.

[3] = test system: mouse ears; assay: UVB-induced ear edema (ear thickness) in mice; assay type: in vivo
Source text: FIG. 1A. Timeline of the acute and chronic effects of UV-induced skin injury. FIG. 1B. Quantitative PCR was used to measure induction of VEGF transcript in mouse skin upon exposure to various doses of UVB (n=3 mice/group). FIG. 1C. Representative photographs of mouse ears two days after UVB exposure. UVB induces angiogenesis in the ear of mice. FIG. 1D. Systemic administration of VEGF antibody 2C3 reduces edema as shown by 50% decrease in ear thickness (p=0.0101, n=4).
as §1

| Compound | skin injury following UVB exposure [1] | melanoma tumor growth [2] | acute effects of UV-induced skin damage ([3]; topical administration, mice) | edema (ear thickness) ([3]; topical, 2 hours post UVB exposure, ear thickness 2 days after UVB, n=5, FIG. 2D) |
| --- | --- | --- | --- | --- |
| bevacizumab [Avastin®] | prevented and/or reduced skin injury | prevented and/or reduced melanoma tumor growth | – | – |
| CNC(=O)c1cc(Oc2ccc(NC(=O)Nc3ccc(Cl)c(C(F)(F)F)c3)cc2)ccn1 [sorafenib] | prevented and/or reduced skin injury | – | inhibited the acute effects of UV-induced skin damage | reduces edema |

Source: patent US20210213137A1, “COMPOSITIONS TO TREAT ULTRAVIOLET (UV)-INDUCED SKIN INJURY” (Mayo Foundation for Medical Education and Research, priority 2016, published 2021)
